Values joined by “and” are separate entries in the source; they are usually repeats but may differ in a detail not shown here. Equal values may be shown once. Read-outs that look alike come from different tables or passages of the source.
Columns and labels:
[1] = tested on: human bladder epithelial carcinoma cell-line T24 (ATCC HTB-4); assay: Sulforhodamine B (SRB) assay, T24 cells; format: cell-based; settings: 72 h treatment
Protocol: (§1) A sulforhodamine B (SRB) assay-based approach was employed to determine the inhibitory concentration (IC)50 of paclitaxel formulations PLIP-003, PLIP-006, PLIP-021, and PLIP-023 against the human bladder epithelial carcinoma cell-lines T24 (ATCC® HTB-4™), 5637 (ATCC® HTB-9™) and HT-1376 (ATCC® CRL-1472™). For use in the assays, the paclitaxel formulations were redispersed in normal saline to a concentration of 2-5 mg/mL paclitaxel. The dispersed formulations formed clear solutions. Pure, unformulated, paclitaxel solution ([6 mg/100 μL] in DMSO) was used as a control formulation.
(§2) Cells were seeded onto 96-well plates at a density of 5×10^3 cells/well and cultured for 24 h at 37° C. and 5% CO2. The dispersed paclitaxel formulations and pure drug controls were added to the media of the plated cell cultures. […] Protein-bound SRB was detected by adding 100 μl 10 mM Tris base solution to each well, and allowing 5 to 10 minutes for Tris solution to solubilize SRB. The plates were read using a microplate reader at an absorbance of 565 nm. […]
(§3) Cells were seeded onto 96-well plates at a density of 5×10^3 cells/well and cultured for 24 h at 37° C. and 5% CO2. […] Protein-bound SRB was detected by adding 100 μl 10 mM Tris base solution to each well, and allowing 5 to 10 minutes for Tris solution to solubilize SRB. The plates were read using a microplate reader at an absorbance of 565 nm.

[2] = tested on: KU-7-GFP human bladder cancer; assay: KU-7-GFP human bladder cancer orthotopic mouse model, intravesical instillation; format: in vivo, mice
Protocol: An orthotopic mouse model was utilized to evaluate a proliposomal formulation of paclitaxel. The bladder cancer cell line KU7/GFP clone 6 was used for these studies. The KU7/GFP clone 6 is stably transfected with the green-fluorescent protein, and these cell lines were used for all in vivo studies. The KU7/GFP clone 6 cell lines are described in Watanabe et al. The cells were grown in modified minimum essential medium supplemented with 10% FCS and incubated at 37° C. in 5% CO2. Tumors generated from KU7/GFP cells were generated […]. The tumors were implanted into the bladder of female mice. […] The foregoing formulations and saline were administered at day 0, day 7, and day 14 post-tumor implantation.
KU-7-GFP human bladder cancer orthotopic MetaMouse® model: The human bladder cancer cell line KU-7 expressing GFP was from the AntiCancer Inc. cell-line bank. The animals were transplanted by intravesical instillation using the KU-7-GFP bladder cancer cells. The animals were anesthetized with a mixture of ketamine, acepromazine and xylazine. The surgical area was sterilized using iodine and alcohol. After proper exposure of the bladder following a lower midline abdominal incision, the bladder was catheterized with a 24-G angiocatheter, drained and injured by a scratch with a needle in the bladder lining. KU-7-GFP (100 μl 2×10^6) cells were instilled into the bladder and a purse string was placed to occlude the urethra in order for the cells to be retained for 1 hour. The bladder was then returned to the abdominal cavity. The incision in the abdominal wall was closed with a 6-0 surgical suture in one layer. The animals were kept under isoflurane anesthesia during surgery. All procedures of the operation described above were performed under a 7× magnification microscope (Olympus). Animals were kept in a barrier facility under HEPA filtration.
On day 7 after tumor cell implantation, fifty animals were randomly divided into five groups (each treatment group contained n=10 mice) on day 7 after tumor implantation. Treatments in all groups for all mice were initiated on the same day, which was considered Study Day 0. Freshly reconstituted formulation (50 μL) was instilled intravesically using a 24 G/¾″ IV catheter, and the urethra was occluded using a purse string knot. The formulation was held in the bladder for a period of 1 h. After 1 h, the purse string was cut open, and the bladder was allowed to void naturally. The same procedure was followed on days 0, 7, 14 […].
In vitro human bladder cancer cell lines (T24, KU7) were used to assess IC50 values. In vivo studies were carried out in nude mice inoculated with KU7-GFP cell-lines. After KU7 bladder tumor inoculation, weekly (×3) intravesical instillations (3 groups: PLIP; PTX/DMSO or PTX/Nab; or saline) were delivered and tumor growth measured. Pharmacokinetic studies were carried out in rat species. A GLP compliant acute-expanded toxicology/toxicokinetics study in rat species was also performed.

[3] = tested on: human bladder epithelial carcinoma cell-line 5637 (ATCC HTB-9); assay: Sulforhodamine B (SRB) assay, 5637 cells; format: cell-based; settings: 72 h treatment
Protocol: as §1, §2, §3

[4] = tested on: human bladder epithelial carcinoma cell-line HT-1376 (ATCC CRL-1472); assay: Sulforhodamine B (SRB) assay, HT-1376 cells; format: cell-based; settings: HT1376; cisplatin formulations; 72 h treatment
Protocol: as §1, §2, §3

[5] = Redispersion / dissolution in normal saline; format: physicochemical
Protocol: as §1
A sulforhodamine B (SRB) assay-based approach was employed to determine the inhibitory concentration IC50 of cisplatin formulations PLIC-002 and PLIC-009 against the human bladder carcinoma epithelial cell-lines T24 (ATCC® HTB-4™), 5637 (ATCC® HTB-9™) and HT-1376 (ATCC® CRL-1472™). For use in the assays, the cisplatin formulations were redispersed in normal saline to a concentration 2 mg/mL cisplatin. The redispersed formulations formed clear solutions. Pure cisplatin solution 1 mg/mL in normal saline (unformulated) was used as a control. Higher concentrations of pure cisplatin were not used because cisplatin will not form a clear solution above 1 mg/mL in normal saline.

[6] = 5.0 mg/kg, nude mice KU7-GFP, weekly intravesical instillations
[7] = 5.0 mg/kg, nude mice KU7-GFP, weekly intravesical instillations, * p < 0.05 vs saline

Row | SMILES | IC50 ([1]; Homo sapiens, T-24, paclitaxel formulations, read-out: IC50) [µg/mL] | Bladder Size [2, 6] [mm^2] | Tumor Size [2, 6] [mm^2] | % Bladder Overtaken by Tumor [2, 7] [%*] | % Complete Response [2, 7] | Final tumor area, measured by fluorescent method ([2]; Groups 3 and 4, title says Study Design 2, two weeks, five groups as in Study Design 1 (5 mg/kg once a week), individual mice, listed as PTX in DMSO, 5 mg/kg) | Final tumor area, measured by fluorescent method, mean ([2]; Groups 3 and 4, title says Study Design 2, two weeks, five groups as in Study Design 1 (5 mg/kg once a week), mean) [mm^2] | IC50 ([3]; Homo sapiens, paclitaxel formulations, read-out: IC50) [µg/mL] | IC50 ([1]; cisplatin formulations) [µg/mL] | IC50 [4] [µg/mL] | IC50 ([3]; cisplatin formulations) [µg/mL] | highest concentration forming a clear solution in normal saline [5] [mg/mL]
1 | CC(=O)O[C@H]1C(=O)[C@@]2(C)[C@H]([C@H](OC(=O)c3ccccc3)[C@]3(O)C[C@H](OC(=O)[C@H](O)[C@@H](NC(=O)c4ccccc4)c4ccccc4)C(C)=C1C3(C)C)[C@]1(OC(C)=O)CO[C@@H]1C[C@@H]2O [Paclitaxel in DMSO, Paclitaxel] | < 0.1 | 13 | 0.05 | 10 | 25% (1/4) | 16.39 mm^2 and 5.37 mm^2 and 15.96 mm^2 | 12.58 | < 0.1 | – | – | – | –
2 | N.N.[Cl][Pt][Cl] [Pure drug, Cis-diamminedichloroplatinum(II)] | – | – | – | – | – | – | – | – | 0.788 | 1.11 | 0.441 | ≤ 1
